Measurements: ChEMBL document CHEMBL1201861, “Genomics of Drug Sensitity in Cancer screening data, Wellcome Trust Sanger Institute”

The compounds below were run on COR-L88 (assay: cells). Details: Homo sapiens, COR-L88.
Assay type: functional, cell-based, Homo sapiens
Description: SANGER: Inhibition of human COR-L88 cell growth in a cell viability assay.
With `NC(=O)c1ccc(N(C(N)=O)c2c(F)cccc2F)nc1-c1ccc(F)cc1F` [VX-702] the IC50 was 0.335 µM.

The compounds below were run on DJM-1 (assay: cells). Details: Homo sapiens, DJM-1.
Assay type: functional, cell-based, Homo sapiens
Description: SANGER: Inhibition of human DJM-1 cell growth in a cell viability assay.
For `NC(=O)c1ccc(N(C(N)=O)c2c(F)cccc2F)nc1-c1ccc(F)cc1F` [VX-702], the IC50 was > 2 µM.

These compounds were tested on DMS-114 (assay: cells). Details: Homo sapiens, DMS-114.
Assay type: functional, cell-based, Homo sapiens
For `NC(=O)c1ccc(N(C(N)=O)c2c(F)cccc2F)nc1-c1ccc(F)cc1F` [VX-702], the IC50 was > 2 µM.

What follows are compounds tested on EW-11 (assay: cells). Details: Homo sapiens, EW-11.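 Also: growth inhibition of human EW-11 cells, measured with a cell viability assay.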
Assay type: functional, cell-based, Homo sapiens
Description: SANGER: Inhibition of human EW-11 cell growth in a cell viability assay.
In the case of `NC(=O)c1ccc(N(C(N)=O)c2c(F)cccc2F)nc1-c1ccc(F)cc1F` [VX-702], the IC50 is reported as > 2 µM.

Each compound was assayed on EW-16 (assay: cells). Details: Homo sapiens, EW-16.
Assay type: functional, cell-based, Homo sapiens
Description: SANGER: Inhibition of human EW-16 cell growth in a cell viability assay.
For `NC(=O)c1ccc(N(C(N)=O)c2c(F)cccc2F)nc1-c1ccc(F)cc1F` [VX-702], the IC50 was > 2 µM.

What follows are compounds tested on GB-1 (assay: cells). Details: Homo sapiens, GB-1.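 Also: growth of GB-1 cells judged by a viability assay, IC50 marks the concentration inhibiting growth.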
Assay type: functional, cell-based, Homo sapiens
Description: SANGER: Inhibition of human GB-1 cell growth in a cell viability assay.
With `NC(=O)c1ccc(N(C(N)=O)c2c(F)cccc2F)nc1-c1ccc(F)cc1F` [VX-702] the IC50 was > 2 µM.

Each compound was assayed on GI-1 (assay: cells). Details: Homo sapiens, GI-1.
Assay type: functional, cell-based, Homo sapiens
Description: SANGER: Inhibition of human GI-1 cell growth in a cell viability assay.
`NC(=O)c1ccc(N(C(N)=O)c2c(F)cccc2F)nc1-c1ccc(F)cc1F` [VX-702] was tested, and the IC50 was > 2 µM.

Each compound was assayed on GI-ME-N (assay: cells). Details: Homo sapiens, GI-ME-N.
Assay type: functional, cell-based, Homo sapiens
Description: SANGER: Inhibition of human GI-ME-N cell growth in a cell viability assay.
`NC(=O)c1ccc(N(C(N)=O)c2c(F)cccc2F)nc1-c1ccc(F)cc1F` [VX-702] was tested, and the IC50 was > 2 µM.

Each compound was assayed on GOTO (assay: cells). Details: Homo sapiens, GOTO.
Assay type: functional, cell-based, Homo sapiens
Description: SANGER: Inhibition of human GOTO cell growth in a cell viability assay.
With `NC(=O)c1ccc(N(C(N)=O)c2c(F)cccc2F)nc1-c1ccc(F)cc1F` [VX-702] the IC50 was > 2 µM.

Each compound was assayed on GR-ST (assay: cells). Details: Homo sapiens, GR-ST.
Assay type: functional, cell-based, Homo sapiens
Description: SANGER: Inhibition of human GR-ST cell growth in a cell viability assay.
`NC(=O)c1ccc(N(C(N)=O)c2c(F)cccc2F)nc1-c1ccc(F)cc1F` [VX-702] was tested, and the IC50 was > 2 µM.

Each compound was assayed on GT3TKB (assay: cells). Details: Homo sapiens, GT3TKB.
Assay type: functional, cell-based, Homo sapiens
Description: SANGER: Inhibition of human GT3TKB cell growth in a cell viability assay.
For `NC(=O)c1ccc(N(C(N)=O)c2c(F)cccc2F)nc1-c1ccc(F)cc1F` [VX-702], the IC50 was > 2 µM.

What follows are compounds tested on HL-60 (assay: cells). Details: Homo sapiens, HL-60.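 Also: growth inhibition of human HL-60 cells, read out with a cell viability assay.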
Assay type: functional, cell-based, Homo sapiens
Description: SANGER: Inhibition of human HL-60 cell growth in a cell viability assay.
`NC(=O)c1ccc(N(C(N)=O)c2c(F)cccc2F)nc1-c1ccc(F)cc1F` [VX-702] was tested, and the IC50 was > 2 µM.

Each compound was assayed on HOP-62 (assay: cells). Details: Homo sapiens, HOP-62.
Assay type: functional, cell-based, Homo sapiens
Description: SANGER: Inhibition of human HOP-62 cell growth in a cell viability assay.
`NC(=O)c1ccc(N(C(N)=O)c2c(F)cccc2F)nc1-c1ccc(F)cc1F` [VX-702] was tested, and the IC50 was 0.0154 µM.

The compounds below were run on KARPAS-45 (assay: cells). Details: Homo sapiens, KARPAS-45.
Assay type: functional, cell-based, Homo sapiens
Description: SANGER: Inhibition of human KARPAS-45 cell growth in a cell viability assay.
`NC(=O)c1ccc(N(C(N)=O)c2c(F)cccc2F)nc1-c1ccc(F)cc1F` [VX-702] showed an IC50 of 0.148 µM.

The compounds below were run on KE-37 (assay: cells). Details: Homo sapiens, KE-37.
Assay type: functional, cell-based, Homo sapiens
Description: SANGER: Inhibition of human KE-37 cell growth in a cell viability assay.
With `NC(=O)c1ccc(N(C(N)=O)c2c(F)cccc2F)nc1-c1ccc(F)cc1F` [VX-702] the IC50 was > 2 µM.

Each compound was assayed on KGN (assay: cells). Details: Homo sapiens, KGN.
Assay type: functional, cell-based, Homo sapiens
Description: SANGER: Inhibition of human KGN cell growth in a cell viability assay.
`NC(=O)c1ccc(N(C(N)=O)c2c(F)cccc2F)nc1-c1ccc(F)cc1F` [VX-702] was tested, and the IC50 was > 2 µM.

These compounds were tested on KLE (assay: cells). Details: Homo sapiens.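 Also: growth inhibition of human KLE cells, read out with a cell viability assay.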
Assay type: functional, cell-based
Description: SANGER: Inhibition of human KLE cell growth in a cell viability assay.
With `NC(=O)c1ccc(N(C(N)=O)c2c(F)cccc2F)nc1-c1ccc(F)cc1F` [VX-702] the IC50 was > 2 µM.

These compounds were tested on KS-1 (assay: cells). Details: Homo sapiens.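 Also: growth inhibition of KS-1 cells, read out with a cell viability assay.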
Assay type: functional, cell-based
Description: SANGER: Inhibition of human KS-1 cell growth in a cell viability assay.
With `NC(=O)c1ccc(N(C(N)=O)c2c(F)cccc2F)nc1-c1ccc(F)cc1F` [VX-702] the IC50 was > 2 µM.

What follows are compounds tested on LAN-6 (assay: cells). Details: Homo sapiens, LAN-6.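 Also: growth inhibition of LAN-6 cells, determined with a cell viability assay.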
Assay type: functional, cell-based, Homo sapiens
Description: SANGER: Inhibition of human LAN-6 cell growth in a cell viability assay.
For `NC(=O)c1ccc(N(C(N)=O)c2c(F)cccc2F)nc1-c1ccc(F)cc1F` [VX-702], the IC50 was > 2 µM.

What follows are compounds tested on LB771-HNC (assay: cells). Details: Homo sapiens.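 Also: growth inhibition of LB771-HNC human cells, read out with a cell viability assay.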
Assay type: functional, cell-based
Description: SANGER: Inhibition of human LB771-HNC cell growth in a cell viability assay.
For `NC(=O)c1ccc(N(C(N)=O)c2c(F)cccc2F)nc1-c1ccc(F)cc1F` [VX-702], the IC50 was > 2 µM.

What follows are compounds tested on LS-1034 (assay: cells). Details: Homo sapiens, LS-1034.
Assay type: functional, cell-based, Homo sapiens
Description: SANGER: Inhibition of human LS-1034 cell growth in a cell viability assay.
In the case of `NC(=O)c1ccc(N(C(N)=O)c2c(F)cccc2F)nc1-c1ccc(F)cc1F` [VX-702], the IC50 is reported as > 2 µM.

Each compound was assayed on Lu-65 (assay: cells). Details: Homo sapiens, Lu-65.
Assay type: functional, cell-based, Homo sapiens
Description: SANGER: Inhibition of human LU-65 cell growth in a cell viability assay.
With `NC(=O)c1ccc(N(C(N)=O)c2c(F)cccc2F)nc1-c1ccc(F)cc1F` [VX-702] the IC50 was > 2 µM.

What follows are compounds tested on MC116 (assay: cells). Details: Homo sapiens, MC116.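 Also: growth inhibition of MC116 cells, read out with a cell viability assay.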
Assay type: functional, cell-based, Homo sapiens
Description: SANGER: Inhibition of human MC116 cell growth in a cell viability assay.
For `NC(=O)c1ccc(N(C(N)=O)c2c(F)cccc2F)nc1-c1ccc(F)cc1F` [VX-702], the IC50 was > 2 µM.

The compounds below were run on MMAC-SF (assay: cells). Details: Homo sapiens.
Assay type: functional, cell-based
Description: SANGER: Inhibition of human MMAC-SF cell growth in a cell viability assay.
In the case of `NC(=O)c1ccc(N(C(N)=O)c2c(F)cccc2F)nc1-c1ccc(F)cc1F` [VX-702], the IC50 is reported as > 2 µM.

The compounds below were run on MOLT-16 (assay: cells). Details: Homo sapiens, MOLT-16.
Assay type: functional, cell-based, Homo sapiens
Description: SANGER: Inhibition of human MOLT-16 cell growth in a cell viability assay.
In the case of `NC(=O)c1ccc(N(C(N)=O)c2c(F)cccc2F)nc1-c1ccc(F)cc1F` [VX-702], the IC50 is reported as > 2 µM.
